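Cultured in 96-well plates, cells were exposed to test compound for 48 hours across five concentrations. At the GI50, growth is halved.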 The source made the active and inactive calls. No stated cut-off is given here; in the data, active = GI50 up to about 1.1 µM and inactive = higher.

The values below come from ChEMBL document CHEMBL1201862, “PubChem BioAssay data set” (2004).

Common to all, as to assay: NCI tumour cell line growth inhibition, 48 h
The subject of test [1] is A549.
Test [2] concerns HCT-116.
The test system of test [3] is HOP-62.
Test [4] relates to MDA-MB-231.
Test [5] relates to MDA-MB-435.
The subject of test [6] is MOLT-4.
Test [7] relates to NCI-H226.
The test system of test [8] is NCI-H23.
Test [9] deals with OVCAR-3.
Test [10] relates to OVCAR-5.
The test system of test [11] is OVCAR-8.
The test system of test [12] is RPMI-8226.
Test [13] relates to SF-268.
Test [14] has as its system SF-295.
For test [15], the system named is SK-MEL-5.
The test system of test [16] is SK-OV-3.
Test [17] relates to SN12C.
For test [18], the system named is TK-10.
Test [19] has as its system UACC-257.
For test [20], the system named is UO-31.

With `O=C(O)c1ccccc1/C=C1\Cc2ccc3c(c2C1=O)CCCC3`, the GI50 was 42.7 µM (inactive) in test [1]; 30.1 µM (inactive) in test [2]; 49.7 µM (inactive) in test [3]; 21.4 µM (inactive) in [4]; 44.7 µM (inactive) in test [5]; 25.2 µM (inactive) in test [6]. Further, the GI50 in test [7] is 28.6 µM (inactive); in test [8] it was 26.1 µM (inactive); in test [9] it was 31 µM (inactive); in [10], 73.1 µM (inactive); in test [11] it was 68.7 µM (inactive); in [12], 26.9 µM (inactive). Moreover, the GI50 was 64 µM (inactive) in test [13]; 31.6 µM (inactive) in test [14]; 15.9 µM (inactive) in test [15]; 94.8 µM (inactive) in test [16]; 26.2 µM (inactive) in test [17]; 75.2 µM (inactive) in [18]. Besides, the GI50 was 25.1 µM (inactive) in [19] and 63.5 µM (inactive) in [20].

For the compound `NC(Cc1ccccc1)c1nccs1` (stereo not given), the GI50 in test [1], in [2], in test [3], in test [4], in [5] and in test [6] was > 100 µM (inactive) each time. The GI50 in [7], in test [8], in test [9], in test [10], in test [11] and in test [12] was > 100 µM (inactive) throughout. Further, the GI50 in test [13], in [14], in test [15], in test [16], in test [17] and in [18] was > 100 µM (inactive) each time. The GI50 in test [19] and in [20] was > 100 µM (inactive) in each case.

Regarding `CCCCCCCCCCCCCCCCCCNc1ccn(C2OC(COP(=O)(O)OCC3OC(n4cc(C)c(=O)[nH]c4=O)CC3N=[N+]=[N-])C(O)C2O)c(=O)n1` (stereo not given), the GI50 is 52 µM (inactive) in [1]; 39.7 µM (inactive) in test [2]; 23.2 µM (inactive) in test [3]; 22.1 µM (inactive) in [4]; 23.8 µM (inactive) in test [5]; 16.4 µM (inactive) in test [6]. For the same compound, the GI50 in [7] is 22.8 µM (inactive); in test [8], 19.5 µM (inactive); in test [9] it was 36.9 µM (inactive); in test [10], 16.7 µM (inactive); in [11] it was 21.8 µM (inactive); in test [12] it was 11.8 µM (inactive). Further, the GI50 in test [13] was 19.2 µM (inactive); in test [14], 18.3 µM (inactive); in test [15] it was 22.8 µM (inactive); in [16], 18.9 µM (inactive); in test [17] it was 21.7 µM (inactive); in test [18], 16.8 µM (inactive). Moreover, the GI50 in test [19] was 25.4 µM (inactive); in test [20], 21 µM (inactive).

Consider `C=C1C(=O)OC2C3OC(C)(CCC(O)C3COC(C)=O)CC(OC(=O)/C(=C/C)COC(C)=O)C12` (stereo not given), for which the GI50 in test [1] was 7.33 µM (inactive); in [2], 0.0796 µM (active); in [3], 3.08 µM (inactive); in test [4], 0.53 µM (active); in test [5] it was 0.109 µM (active); in test [6], 0.0783 µM (active). Besides, the GI50 in [7] is 2.16 µM (inactive); in test [8], 1.02 µM (active); in test [9] it was 0.212 µM (active); in [10], 0.586 µM (active); in [11] it was 0.532 µM (active); in [12], 0.0698 µM (active). The GI50 in [13] was 0.982 µM (active); in [14], 9.12 µM (inactive); in test [15], 0.684 µM (active); in test [16], 6.64 µM (inactive); in test [17], 0.738 µM (active); in [18], 0.165 µM (active). The GI50 in [19] is 0.586 µM (active); in test [20], 0.398 µM (active).

Take `COc1cc(/C=C2\CCC/C(=C\c3ccc(O)c(OC)c3)C2=O)ccc1O` [CYCLOVALONE]: the GI50 in test [1] is 2.73 µM (inactive); in [2], 2.07 µM (inactive); in test [3] it was 2.84 µM (inactive); in [4], 5.96 µM (inactive); in test [5] it was 3.13 µM (inactive); in test [6], 2.83 µM (inactive). The GI50 was 6.17 µM (inactive) in test [7]; 6.75 µM (inactive) in test [8]; 2.74 µM (inactive) in test [9]; 9.66 µM (inactive) in [10]; 1.72 µM (inactive) in [11]; 1.2 µM (inactive) in test [12]. Further, the GI50 is 2.39 µM (inactive) in test [13]; 2.92 µM (inactive) in [14]; 2.51 µM (inactive) in [15]; 3.73 µM (inactive) in test [16]; 2.38 µM (inactive) in [17]; 5 µM (inactive) in [18]. The GI50 in test [19] is 5.01 µM (inactive); in [20], 2.13 µM (inactive).

For the compound `CCN(CCCl)CCCCNc1c2ccccc2nc2ccc(OC)cc12`, the GI50 was 0.177 µM (active) in test [1]; 0.0542 µM (active) in test [2]; 0.439 µM (active) in test [3]; 0.457 µM (active) in [4]; 0.427 µM (active) in test [5]; < 0.01 µM (active) in test [6]. In addition, the GI50 in [7] is 0.102 µM (active); in test [8], 0.276 µM (active); in [9] it was 1.15 µM (inactive); in [10], 0.659 µM (active); in test [11], 0.305 µM (active); in test [12], 0.0535 µM (active). The GI50 was 0.171 µM (active) in [13]; 0.259 µM (active) in test [14]; 0.373 µM (active) in test [15]; 1.24 µM (inactive) in test [16]; < 0.023 µM (active) in [17]; 0.92 µM (active) in test [18]. For the same compound, the GI50 in [19] was 2.67 µM (inactive); in test [20], 1.11 µM (active).

Regarding `COC1(C)CP(=O)(OC(C)C)CC(C)=C1Cl` (stereo not given), the GI50 in test [1] is 17.1 µM (inactive); in [2] it was 6.37 µM (inactive); in [3], 17.9 µM (inactive); in test [4], 15.9 µM (inactive); in [5] it was 13.6 µM (inactive); in [6], 22.2 µM (inactive). Moreover, the GI50 in test [7] is 12.5 µM (inactive); in test [8], 10.7 µM (inactive); in test [9] it was 10.7 µM (inactive); in [10] it was 18.8 µM (inactive); in test [11], 16.1 µM (inactive); in test [12] it was 3.78 µM (inactive). Further, the GI50 in [13] was 32.2 µM (inactive); in test [14], 11.8 µM (inactive); in test [15], 12.4 µM (inactive); in [16] it was 49.2 µM (inactive); in [17] it was 15.2 µM (inactive); in [18] it was 15.9 µM (inactive). Besides, the GI50 in test [19] is 16.9 µM (inactive); in [20], 17.8 µM (inactive).

For `CC(=O)N1N=C(c2ccc3ccccc3c2O)CC1c1ccc(Cl)cc1Cl` (stereo not given), the GI50 is 25.1 µM (inactive) in [1]; 16.7 µM (inactive) in [2]; 31.9 µM (inactive) in [3]; 26.7 µM (inactive) in [4]; 25.4 µM (inactive) in [5]; 7.67 µM (inactive) in test [6]. For the same compound, the GI50 in test [7] is 44.6 µM (inactive); in test [8], > 100 µM (inactive); in [9], 15.6 µM (inactive); in test [10], > 100 µM (inactive); in [11], 59 µM (inactive); in test [12] it was 17.3 µM (inactive). Besides, the GI50 is 26.9 µM (inactive) in [13]; 31.6 µM (inactive) in [14]; 33.7 µM (inactive) in test [15]; > 100 µM (inactive) in test [16]; 19.6 µM (inactive) in test [17]; 52.7 µM (inactive) in [18]. The GI50 is 44.2 µM (inactive) in test [19] and > 100 µM (inactive) in test [20].

As for `CN(CCC(=O)O)S(=O)(=O)c1ccccc1`, the GI50 in test [1], in test [2], in test [3], in [4], in test [5] and in test [6] was > 100 µM (inactive) each time. In addition, the GI50 in [7], in test [8], in [9], in test [10], in test [11] and in [12] was > 100 µM (inactive) in each case. For the same compound, the GI50 in test [13], in test [14], in test [15], in test [16], in test [17] and in [18] was > 100 µM (inactive) each time. In addition, the GI50 in test [19] and in [20] was > 100 µM (inactive) in each case.

Take `c1ccc(/N=C2\c3ccccc3CN2c2ccccn2)nc1`: the GI50 in test [1] is > 100 µM (inactive); in [2], 74.3 µM (inactive); in test [3] it was > 100 µM (inactive); in test [4], > 100 µM (inactive); in [5], > 100 µM (inactive); in [6], 54.6 µM (inactive). For the same compound, the GI50 in [7] was > 100 µM (inactive); in test [8], 71.9 µM (inactive); in [9], > 100 µM (inactive); in test [10], > 100 µM (inactive); in test [11] it was > 100 µM (inactive); in [12] it was 78 µM (inactive). Also, the GI50 in [13], in test [14], in test [15], in [16], in test [17] and in test [18] was > 100 µM (inactive) each time. Also, the GI50 in test [19] and in test [20] was > 100 µM (inactive) each time.
